Test results taken from patent US5907038A, “Azepanes” (Hoffmann-La Roche Inc., priority 1995, dated 1999).
Where a name gives a salt, the structure may show the parent alone.

Assays:
[1] = target: cAMP-dependent protein kinase (PKA); assay: Inhibition of cAMP-dependent protein kinase (PKA); format: biochemical; conditions: partially purified PKA from swine brain; histone H1 substrate; cyclic AMP activation; 32° C., 2 minutes; read-out: IC50 (Test Procedure B)
Protocol: B: Inhibition of cAMP-dependent protein kinase (PKA): PKA activity is determined by measuring the transfer of ^32 P-labelled phosphate from ^32 P-g-ATP ([…]) to histone H1 ([…]) as the substrate. Partially purified PKA from swine brain is used as the enzyme source [DEAE chromatography according to the method of U. Kikkawa et al. (Methods Enzymol. 99, 288, 1983)]. Activation of the PKA is effected by cyclic AMP (2 mM) in Tris-HCl buffer (20 mM, pH 7.4). The test substances are used in dimethyl sulfoxide (DMSO)/buffer in the concentration range […]. The test is started by the addition of enzyme; after incubation at 32° C. for 2 minutes the reaction is stopped by the addition of 20% trichloroacetic acid (with 1% SDS and 1% sodium pyrophosphate). The precipitated radioactive histone protein is separated from excess ATP by filtration over nitrocellulose membranes and the radioactivity on the filter is measured in a scintillation counter. The inhibitory activity of the test substance is given as the micromolar concentration which is required to reduce the PKA activity by 50% ([…]).

protein kinase C (PKC) = assay: Inhibition of protein kinase C (PKC) (isolated enzyme); format: biochemical; conditions: partially purified PKC from swine brain; histone H1 substrate; 32° C., 2 minutes; read-out: IC50 (Test Procedure A)
Protocol: A: Inhibition of protein kinase C (PKC) (isolated enzyme): Protein kinase C (PKC) activity is determined by measuring the transfer of ^32 P-labelled phosphate from ^32 P-g-ATP ([…]) to histone H1 ([…]) as the substrate. Partially purified PKC from swine brain is used as the enzyme source [DEAE chromatography according to the method of U. Kikkawa et al. (Methods Enzymol. 99, 288, 1983)]. Activation of the PKC is effected by phospholipid vesicle prepared by ultrasound treatment of a mixture of 0.05 ml of phosphatidylserine (10 mg/ml) and 0.005 ml of diolein (10 mg/ml) in 5 ml of Tris-HCl buffer (20 mM, pH 7.4). The test substances are used in dimethyl sulphoxide (DMSO)/buffer in the concentration range […]. The test is started by the addition of enzyme; after incubation at 32° C. for 2 minutes the reaction is stopped by the addition of 20% trichloroacetic acid (with 1% SDS and 1% sodium pyrophosphate). The precipitated radioactive histone protein is separated from excess ATP by filtration over nitrocellulose membranes and the radioactivity on the filter is measured in a scintillation counter. The inhibitory activity of the test substance is given as the micromolar concentration which is required to reduce the PKC activity by 50% ([…]).

Mouse Hair Follicle = assay: Cell proliferation in cultured mouse hair follicles (3H-thymidine incorporation, DNA synthesis); format: cell-based, mouse (CD-1); conditions: for Emax: 3H-thymidine incorporation as percentage of control, whisker follicles of 4-day-old CD-1 mice, read-out: Mouse Hair Follicle DNA Synthesis Maximal Stimulation; for EC50: concentration giving 50% of the maximal stimulation of DNA synthesis
Protocol: C: Cell proliferation in cultured mouse hair follicles Mouse whisker follicles were isolated and cultured according to the method described by Buhl et al., J. Invest. Dermatol. 92, 315-320 (1989). Whisker pads were removed from 4-day-old CD-1 mice and vibrissae were carefully separated from the surrounding tissue with forceps under a dissecting microscope. Four hair follicles were incubated at 37° C. in 2 cm^2 wells in 1 ml of M199 medium containing 20% fetal bovine serum, in the presence or absence of test compound at varying concentrations. Each treatment group consisted of four wells. After 1 day of culture. ^3 H-thymidine was added to the wells to a final concentration of 5 μCi/ml and the follicles were incubated for a further three days. The follicles were then washed with phosphate-buffered saline and incorporated radioactivity was solubilized by addition of 0.5 ml of 1.0M NaOH and incubation for 18 h at 37° C. An aliquot of the alkali extracted was taken for measurement of radioactivity and results were expressed as dpm/follicle. Calculation of maximal stimulation and ED50 values The hair follicle ^3 H-thymidine incorporation values (dpm/follicle), obtained as described above, were then expressed as a percentage of control levels as follows: % control DNA synthesis for test compound=((treatment dpm/follicle)/(control dpm/follicle))×100 The dose-response relationship for each compound was then used to determine: 1) the maximal stimulation of DNA synthesis obtained for that compound, expressed as a percentage of control levels, and 2) the ED50 value, or the concentration (μM) of compound that gave rise to 50% of the maximal stimulation of DNA synthesis.

Row | SMILES | IC50 [1] [µM] | IC50 (protein kinase C (PKC)) [µM] | Emax (Mouse Hair Follicle) [%] | EC50 (Mouse Hair Follicle) [µM]
1 | O=C(N[C@@H]1CNCCC[C@H]1OC(=O)c1ccc(O)c(O)c1)c1ccc(O)cc1 [I/15, 3,4-Dihydroxy-benzoic acid (3R,4R)-3-(4-hydroxy-benzoylamino)-azepan-4-yl ester trifluoroacetate (1:1)] | 0.07 | 8.8 | – | –
2 | O=C(N[C@@H]1CNCCC[C@H]1OC(=O)c1ccc(O)cc1)c1ccc(OC(=O)c2c(O)cccc2O)cc1 [II/1, 4-Hydroxy-benzoic acid (3R,4R)-3-[4-(2,6-dihydroxy-benzoyloxy)-benzoylamino]-azepan-4-yl ester trifluoroacetate (1:1)] | 0.038 | 30 | 468 ± 26 | 10
3 | O=C(N[C@@H]1CNCCC[C@H]1OC(=O)c1ccc(O)cc1)c1ccc(O)cc1 [III/1, 4-Hydroxy-benzoic acid (3R,4R)-3-(4-hydroxy-benzoylamino)-azepan-4-yl ester hydrochloride (1:1)] | 0.026 | 10 | 534 ± 52 | 5
4 | COc1cc2c(O)cccc2cc1C(=O)O[C@@H]1CCCNC[C@H]1NC(=O)c1ccc(O)cc1 [I/19, 5-Hydroxy-3-methoxy-naphthalene-2-carboxylic acid (3R,4R)-3-(4-hydroxy-benzoylamino)-azepan-4-yl ester trifluoroacetate (1:1)] | 0.041 | 24 | 371 ± 50 | 30
5 | CN(C(=O)c1ccccc1O)c1ccc(C(=O)O[C@@H]2CCCNC[C@H]2NC(=O)c2ccc(O)cc2)cc1 [I/25, 4-[(2-Hydroxy-benzoyl)-methyl-amino]-benzoic acid (3R,4R)-3-(4-hydroxy-benzoylamino)-azepan-4-yl ester trifluoroacetate (1:1)] | 1.9 | 26 | – | –
6 | O=C(N[C@@H]1CNCCC[C@H]1OC(=O)c1ccc(S(=O)(=O)Oc2ccccc2O)cc1)c1ccc(O)cc1 [I/28, 4-(2-Hydroxy-phenoxysulfonyl)-benzoic acid (3R,4R)-3-(4-hydroxy-benzoylamino)-azepan-4-yl ester hydrochloride (1:1)] | – | – | 349 ± 25 | 40
